According to US20260335251A1, “RED BLOOD CELL-HITCHHIKING IONIC LIQUID COATED NANOPARTICLES FOR CROSSING THE BLOOD BRAIN BARRIER” (University of Mississippi, priority 2022, published 2026):
“Also recorded” adds a separate entry of the source.

Experiments:
[1] = system: microglia, astrocytes, endothelial cells in brain; test: Confocal/widefield immunofluorescence of brain sections (cellular localization); format: in vivo, Sprague-Dawley rat; settings: Iba-1, GFAP, von Willebrand factor
Description: Confocal Fluorescence: Perfused and cryopreserved rat brains were sectioned using a microtome (Leica Biosystems, #CM3050S) at 20-micron thickness. The slides were washed twice with 1×PBS and permeabilized (with 0.1% Triton-X, 0.1% BSA in PBS) for 30 min at 25° C. The permeabilized slides were blocked (1% BSA, 1% normal goat serum in PBS) for an additional 30 min at 25° C. and followed by probing with primary rabbit-anti-IBal (1:200 dilution) or […] (1:250 dilution) for 90 min at 25° C. At the end of the incubation, the slides were washed 3x with PBS and followed by incubation with secondary antibodies (Texas Red Goat-anti Rabbit, 1:500 for IBa1 and Alexa 488 goat anti-mouse, 1:500 for GFP), 1 hr at 25° C. To stain cellular nuclei, Hoechst stain was used at 1:10000 dilution. All dilutions represented as (vol/vol). The slides were washed 3× with 1×PBS and mounted with antifade media and kept at 4° C. for further analysis with confocal microscopy. […]
To both qualitatively and quantitatively confirm IL-PLGA NP selectivity for cells comprising the HIV reservoir, brain sections (40 μm) collected from rats used above were co-labeled for protein markers of astrocytes (GFAP; FIG. 3B) and microglia (Iba-1; FIG. 3C) with a Hoechst nuclear counterstain (FIG. 3A). […]

red blood cells = test: Red blood cell hitchhiking of nanoparticles coated with the ionic liquid; format: cell-based; settings: nanoparticles coated with this ionic liquid
HIV-1BaL = test: HIV-1 replication in human PBMCs (p24 antigen ELISA); format: cell-based, HIV-1 (in human PBMCs); settings: days 3, 7, 10 post-infection; ABC alone or in NPs p<0.0001; empty IL-coated NPs p=0.04
Description: HIV Expression and Cytotoxicity: 3 independent batches of bare and CA2HA 1:2-coated PLGA NPs were prepared with abacavir (ABC) as above but in sterile Milli-Q water and re-suspended to 1 mg/ml with sterile 1×PBS pH 7.4. As ~60 μg/mL of drug was estimated by quantitative NMR, PBMC cells were stimulated with 10 μg/ml of PHA for 4 days. Stimulated PBMC cells were harvested at 400×g, RT for 10 min. The cells at 2×10^6 cells/mL were used for each experimental condition and infected with 1 ng/ml of HIV-1 Bal+ in presence of 3 ng/ml of IL-2 and 2 μg/ml of polybrene. PBMC cells were treated in the absence or presence of nanoparticles at 10 µM final concentration. […] The cell viability was determined by trypan blue at each harvesting day and an aliquot of condition media was saved for further analysis on p24 antigen assay. […] The p24 antigen assay was performed according to manufacture protocol on experimental condition media collected on 3, 7, 10 days post HIV-1 infection for quantification of HIV-1.
To assess the bioactivity of ART when encapsulated inside PLGA & IL-PLGA NPs, HIV-1 replication was assessed in human peripheral blood mononuclear cells (PBMCs) that were mock-infected or were infected with HIV-1BaL (1 ng/ml) for 10 days. […] Concentration of the HIV-1 capsid protein (p24, ng/ml) was assessed on days 3-, 7-, and 10 post-infection by enzyme-linked immunosorbent assay (ELISA) (FIG. 7).

[2] = Quantitative encapsulation of ABC (1H NMR); format: physicochemical; settings: for ABC encapsulated: ~1 mg/mL NPs, from an added 74.1 μg/mL, quantitative 1H NMR
Description: Quantitative encapsulation of ABC (^1H NMR): PLGA and CA2HA 1:2 PLGA NPs were synthesized in deuterium oxide as described previously, and then resuspended to 500 μL (2 mg/mL) to quantitatively measure composition of the IL coating on the surface of the PLGA NPs with 20 μL Tetramethylsilane (TMS) internal quantification standard: ^1H NMR (400 MHz, D2O) δ 6.85 (dt, J=15.8, 7.0 Hz, 27H), 5.85 (dt, J=15.7, 1.5 Hz, 28H), 4.78 (d, J=1.3 Hz, 7140H), 4.09-4.02 (m, 27H), 3.81-3.71 (m, 21H), 3.64 (dd, J=11.8, 4.5 Hz, 45H), 3.60-3.47 (m, 73H), 3.25 (s, 136H), 2.72 (d, J=1.3 Hz, 14964H), 2.19 (qd, J=7.2, 1.6 Hz, 69H), 1.56-1.46 (m, 47H), 0.91 (t, J=7.4 Hz, 96H), 0.00 (s, 12H).
To break open the NPs, bare PLGA NPs and IL-PLGA NPs were first sonicated at 60° C. for 30 minutes to destroy the outer IL coating integrity, evidenced by a phase separation of cloudiness in the IL-PLGA NPs. To next dissociate the IL coating from the polymer core, all particles were vortexed at 25° C. on the highest setting for 10 minutes (in 2-minute intervals). The particles were then stored at −80° C. for 2 minutes to protect the ABC drug while inducing a bulk phase separation, and then vortexed at the highest setting for 2 min at 25° C. Lastly, to extrude the abacavir from the polymer core, all NPs were 30 kDa MWCO centrifuge-filtered for 1 hour at 4500 RPM at 40° C. Filtrate smaller than 30 kDa was collected at the bottom of the tube and stored at −20° C., concentrated (2×) with D2O and evaluated for presence of drug by ^1H NMR at 400 MHz at the highest scan rate (proton64).
As the appearance of drug peaks were very small compared to the IL, 2 μL of TMS was then used in particular to obtain a relative understanding of the size of the small emerging peaks. […] Representation of encapsulated ABC dose was then calculated: • 0.002 mL TMS (0.648 g/mL)=0.0013 g TMS • 0.0013 g TMS/88.22 g/mol TMS=0.0000146 mol TMS • 0.0000146 mol TMS (~0.03 integral ratio, 8.5 ppm & 0 ppm peak) ~4.38×10^−7 mol ABC • 4.38× 10-7 mol ABC (286.3 g/mol ABC) ~ (0.000125 g ABC/2) (ug total ~1 mg/mL) ~62.7 μg/mL ABC encapsulated

[3] = Abacavir detection in brain regions (1H-NMR); format: in vivo, Sprague-Dawley rat; settings: 6 h; IL-PLGA NPs with 60 μg/mL ABC, intra-carotid; n=3/group
Description: Abacavir Detection in the Brain: In parallel with DiD-NP injections, Sprague-Dawley rats injected with IL-PLGA NPs (either without cargo or with 60 μg/mL ABC, n=3) were sacrificed at 6 hours post-injection, and whole organs were processed, and frozen post-mortem as described above in Biodistribution. In order to assess to areas of biodistribution of abacavir within the brain, the following regions were sliced and homogenized in a 1:1 mixture of 1×PBS (pH 7.4) and Acetonitrile constituting a total homogenate volume of 500 μL per sample: striatum, midbrain, interbrain, cerebellum, hypothalamus, cerebral cortex, & hippocampus. […] A range of 500-600 μL of liquid filtrate was recovered across all samples, which were all delivered into clean NMR tubes and topped 10% (v/v) with D2O to be evaluated for presence of drug by ^1H NMR at 400 MHz with 90% H2O/10% D2O water suppression.
Once biodistribution was determined with DiD, a new set of healthy, 8-week-old, female, Sprague Dawley rats with in-dwelling carotid catheters received IV infusions (under the same conditions) with either empty, or ABC-encapsulated, IL-coated PLGA NPs (n=3/group). Sites of regional distribution of abacavir cargo were evaluated within the brain (at the same 6-hour endpoint). […]

SMILES	Red blood cell hitchhiking (red blood cells)	other results
CCC/C=C/C(=O)O [CA2HA 1:2, Choline 2-Hexenoate 1:2]	–	Cellular localization in brain [1]: colocalizes with HIV reservoir cells
CCC/C(C)=C/C(=O)O [CA3ME2HA 1:1, Choline Trans-3-Methyl-Trans-2-Hexenoate 1:1]	successfully hitchhike red blood cells	–
CCC/C=C/C(=O)O [CA2HA 1:1, Choline 2-Hexenoate 1:1]	successfully hitchhike red blood cells	–
CCCCCCC(=O)O [CAHPA 1:1, Choline Heptanoate 1:1]	successfully hitchhike red blood cells	–
CC/C(C)=C/C(=O)O [CA3ME2PE 1:1, Choline Trans-3-Methyl-Trans-2-Pentenoate 1:1]	successfully hitchhike red blood cells	–
CC/C=C/CC(=O)O [CA3HA 1:1, Choline 3-Hexenoate 1:1]	successfully hitchhike red blood cells	–
Nc1nc(NC2CC2)c2ncn([C@H]3C=C[C@@H](CO)C3)c2n1 [ABC, abacavir]	–	HIV-1 viral replication (p24) vs HIV-infected cells (HIV-1BaL): significantly attenuated viral replication; Encapsulation efficiency (EE) of ABC ([2]; ABC 2%, estimated by quantitative 1H NMR): ~ 84.6%; ABC encapsulated [2]: ~ 62.7 μg/mL; ABC encapsulated ([2]; listed as abacavir (ABC)): ~ 60 μg/mL; Abacavir regional brain accumulation [3]: accumulate most greatly in the cerebellum, interbrain, striatum, and midbrain regions; also recorded: lesser (but considerable) delivery to the hippocampus, cerebral cortex, and hypothalamus regions
CC/C=C(\C)C(=O)O [CAGAS 1:2, Choline trans-2-Methyl-2-Pentenoate 1:2]	successfully hitchhike red blood cells	–
